Results taken from patent publication US9732093B2, “FLAP modulators” (JANSSEN PHARMACEUTICA NV, priority 2013, dated 2017).
Structures can show the parent of a compound that is named as a salt. Where two headings read alike, the source gives them in different places.

What was measured:
human FLAP = human FLAP (Homo sapiens (Human), UniProt P20292); assay: FLAP binding assay (HTRF format)
How it was run: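 HTRF ratio read-out; two independent plates, samples in duplicate on each, values averaged across plates.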

[1] = tested on: leukotriene pathway in human whole blood; assay: Human whole blood assay (LTB4 levels after A23187 stimulation); assay type: cell-based
Procedure: The ability of the compounds of the present invention to treat a FLAP-mediated disease and/or disorder, or associated symptoms or complications thereof, was determined using the following procedures. Binding assay data represent the average value obtained from two different assay plates, with samples run in duplicate on each plate. Human whole blood assay data represent a single replicate on an assay plate using whole blood from at least one healthy donor.
An in vitro cellular assay was performed using human whole blood collected in heparin-containing tubes, which was used to test the ability of compounds to modulate the leukotriene pathway in human whole blood. The blood was diluted 1:1 in RPMI medium, pre-incubated for 15 min at 37° Celsius with test compounds at various concentrations, and then stimulated with calcium ionophore, A23187 (7 μg/mL), for 30 min at 37° Celsius. The samples were then centrifuged and plasma was removed. The plasma was diluted in assay buffer and LTB4 levels were measured using a commercial kit (Enzo Life Sciences). The concentration of each compound that was required for half-maximal inhibition (modulation) of recombinant enzyme activity (IC50) was calculated by a 4-parameter equation using the program GraphPad Prism (GraphPad software).

[2] = human FLAP wild type membranes, HTRF format, Table 6 (additional runs)
[3] = human whole blood diluted 1:1 in RPMI, A23187 stimulation, Table 6 (additional runs)
[4] = human FLAP-containing membranes, HTRF ligand 25 nM, 2 h, average of two plates, duplicates, read-out: FLAP Binding wild type HTRF Ki

Sequence of human FLAP (P20292 whole entry): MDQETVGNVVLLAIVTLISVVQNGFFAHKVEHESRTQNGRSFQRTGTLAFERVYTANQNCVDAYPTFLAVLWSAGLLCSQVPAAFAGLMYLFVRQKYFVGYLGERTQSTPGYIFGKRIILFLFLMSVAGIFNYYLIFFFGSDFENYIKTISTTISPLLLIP

Row | SMILES | Ki (human FLAP; [2]) [nM] | IC50 [1, 3] [nM] | IC50 ([1]; Homo sapiens, blood diluted 1:1 in RPMI, 15 min pre-incubation, A23187 7 μg/mL for 30 min at 37° Celsius, plasma LTB4) [nM] | Ki (human FLAP; [4]) [nM]
1 | Cc1nc(COc2c(C3CCC3)ccc(-c3cnc(N)cn3)c2F)cs1 [Example 287, 5-{4-Cyclobutyl-2-fluoro-3-[(2-methyl-1,3-thiazol-4-yl)methoxy]phenyl}pyrazin-2-amine trifluoroacetic acid salt] | 17.6 | > 1000 | – | –
2 | CC(C)(C)c1ccc(-c2cnc(N)cn2)c(F)c1O [Intermediate G, 3-(5-Aminopyrazin-2-yl)-6-tert-butyl-2-fluorophenol] | – | 575 | 575 | 77.9
3 | Fc1c(-c2cnc3c(c2)OCCN3)ccc(C2CCC2)c1Oc1ncccn1 [Example 225, 7-(4-Cyclobutyl-2-fluoro-3-(pyrimidin-2-yloxy)phenyl)-3,4-dihydro-2H-pyrido[3,2-b][1,4]oxazine] | 23.2 | 287 | – | –
4 | N#Cc1cccnc1COc1c(C2CCC2)ccc(-c2cnc(N)cn2)c1F [Example 286, 2-{[3-(5-Aminopyrazin-2-yl)-6-cyclobutyl-2-fluorophenoxy]methyl)}pyridine-3-carbonitrile trifluoroacetic acid salt] | 81.7 | 1190 | – | –
5 | Nc1cnnc(Oc2c(C3CCC3)ccc(-c3cnc(N)cn3)c2F)c1 [Example 350, 6-[3-(5-Aminopyrazin-2-yl)-6-cyclobutyl-2-fluorophenoxy]pyridazin-4-amine] | 52.9 | 449 | – | –
6 | Nc1cnc(-c2ccc(C3CCC3)c(Oc3cncnc3)c2F)cn1 [Example 349, 5-[4-Cyclobutyl-2-fluoro-3-(pyrimidin-5-yloxy)phenyl]pyrazin-2-amine] | 31 | > 1000 | – | –
7 | Nc1cnc(-c2ccc(CC3CCCCC3)c(O)c2F)cn1 [Example 346, 3-(5-Aminopyrazin-2-yl)-6-(cyclohexylmethyl)-2-fluorophenol] | 45.3 | 176 | – | –
8 | Nc1cnc(-c2ccc(C3CCC3)c(OCc3ncccn3)c2F)cn1 [Example 339, 5-[4-Cyclobutyl-2-fluoro-3-(pyrimidin-2-ylmethoxy)phenyl]pyrazin-2-amine] | 108 | 1640 | – | –
9 | Fc1c(-c2cnc3[nH]ccc3n2)ccc(C2CCC2)c1OCc1ccccc1 [Example 178, 2-[3-(Benzyloxy)-4-cyclobutyl-2-fluorophenyl]-5H-pyrrolo[2.3-b]pyrazine] | – | 771 | – | 354

Stronger by IC50 [1, 3], values ahead:

Row | Ki (human FLAP; [2]) [nM] | IC50 [1, 3] [nM] | IC50 ([1]; Homo sapiens, blood diluted 1:1 in RPMI, 15 min pre-incubation, A23187 7 μg/mL for 30 min at 37° Celsius, plasma LTB4) [nM] | SMILES | Ki (human FLAP; [4]) [nM]
10 | 3.6 | 36.9 | – | Nc1ccnc(Oc2c(C3CCCC3)ccc(-c3cnc(N)nc3)c2F)n1 [Example 335, 5-{3-[(4-Aminopyrimidin-2-yl)oxy]-4-cyclopentyl-2-fluorophenyl}pyrimidin-2-amine] | –
11 | 14.8 | 162 | – | Nc1cnc(-c2ccc(C3CCCC3)c(Oc3ncccn3)c2F)cn1 [Example 337, 5-[4-Cyclopentyl-2-fluoro-3-(pyrimidin-2-yloxy)phenyl]pyrazin-2-amine] | –
12 | 3.9 | 23.8 | – | Nc1cnc(-c2ccc(C3CCCC3)c(Oc3nccc(N)n3)c2F)cn1 [Example 336, 2-[3-(5-Aminopyrazin-2-yl)-6-cyclopentyl-2-fluorophenoxy]pyrimidin-4-amine] | –
13 | 5.4 | 14.4 | – | Nc1ncc(-c2ccc(C3CCCCC3)c(Oc3ncccn3)c2F)cn1 [Example 343, 5-[4-Cyclohexyl-2-fluoro-3-(pyrimidin-2-yloxy)phenyl]pyrimidin-2-amine] | –
14 | 13.1 | 147 | – | Nc1cnc(-c2ccc(C3CCC3)c(Oc3cncc(N)n3)c2F)cn1 [Example 348, 5-{3-[(6-Aminopyrazin-2-yl)oxy]-4-cyclobutyl-2-fluorophenyl}pyrazin-2-amine] | –
15 | 22.6 | 124 | – | Nc1cnc(-c2ccc(C3CCC3)c(OCc3ccc(-c4cnc(N)nc4)cc3)c2F)cn1 [Example 341, 5-(4-{[3-(5-Aminopyrazin-2-yl)-6-cyclobutyl-2-fluorophenoxy]methyl}phenyl)pyrimidin-2-amine] | –
